Read-outs that look alike come from different tables or passages of the source.
Key:
AHR [1] = target: T1, AHR (Homo sapiens, UniProt P35869); test: Inhibition of ligand-induced AHR activation and AHR-regulated gene expression by an AHR antagonist; format: cell-based; parameters: Malignant glioma cell lines as well as GIC express the AHR constitutively; endogenous in cells
T1 sequence (P35869 11-848): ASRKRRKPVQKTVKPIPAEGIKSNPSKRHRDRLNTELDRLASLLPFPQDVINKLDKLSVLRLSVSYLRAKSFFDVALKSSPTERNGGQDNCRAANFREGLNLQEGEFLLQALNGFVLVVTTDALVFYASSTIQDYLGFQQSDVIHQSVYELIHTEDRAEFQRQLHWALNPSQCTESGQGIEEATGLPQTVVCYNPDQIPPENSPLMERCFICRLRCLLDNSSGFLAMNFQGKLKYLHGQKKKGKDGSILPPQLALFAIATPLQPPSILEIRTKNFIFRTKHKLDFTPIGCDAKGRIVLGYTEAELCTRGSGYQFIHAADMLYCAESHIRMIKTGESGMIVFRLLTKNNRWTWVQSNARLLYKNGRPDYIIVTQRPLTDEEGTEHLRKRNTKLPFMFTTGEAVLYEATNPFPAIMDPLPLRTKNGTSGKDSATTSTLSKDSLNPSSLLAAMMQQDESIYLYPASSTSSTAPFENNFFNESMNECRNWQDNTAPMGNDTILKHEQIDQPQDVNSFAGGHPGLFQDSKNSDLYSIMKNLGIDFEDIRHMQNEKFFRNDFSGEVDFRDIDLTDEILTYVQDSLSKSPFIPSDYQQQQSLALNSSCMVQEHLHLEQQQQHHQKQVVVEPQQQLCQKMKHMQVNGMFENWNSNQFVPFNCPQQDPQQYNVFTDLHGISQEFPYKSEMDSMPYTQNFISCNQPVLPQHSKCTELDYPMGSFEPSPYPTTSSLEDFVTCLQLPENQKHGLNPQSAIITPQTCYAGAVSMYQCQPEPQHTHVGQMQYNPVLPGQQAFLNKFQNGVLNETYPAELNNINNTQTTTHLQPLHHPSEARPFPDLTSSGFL
Description: TDO expression was analysed by immunohistochemistry in human tumors. Its relevance for Trp degradation was determined using genetic knockdown or overexpression of TDO. Trp and Kyn were measured in cell culture supernatants, human sera and xenograft tissue by HPLC. Mixed leukocyte reactions, chromium release, ELISpot and staining of immune cells in tumor tissues were used to assess the immune effects of TDO activity. Cell cycle analysis, matrigel and spheroid invasion assays, scratch assays, sphere formation assays and clonogenicity assays were employed to analyse the autocrine effects of TDO activity. All animal procedures followed the institutional laboratory animal research guidelines and were approved by the governmental authorities. Orthotopic implantation of human glioma cells with and without stable knockdown of TDO into CD1nu/nu mice, s.c. injection of these cells into NK-depleted or wildtype CD1nu/nu mice and s.c. injection of murine Tdo-proficient and Tdo-deficient GL261 cells into syngeneic C57BL/6N mice were performed to analyse the autocrine and paracrine effects of TDO activity in vivo. Microarray analysis of Kyn-treated human glioma cells was performed to identify signalling pathways activated by Kyn. Analysis of AHR translocation, DRE-luciferase assays and radioligand binding assays confirmed activation of the AHR by Kyn. […]

T cells = test: T cell proliferation (mixed leukocyte reaction, TCR-stimulated T cells); format: cell-based, human
Description: Glioma cells were seeded in 96-well plates in RPMI 1640 containing 10% FBS, 100 U/ml penicillin and 100 μg/ml streptomycin. 24 h after seeding […] irradiated (30 Gy) PBMC as stimulators and 2×10^5 PBMC from unrelated donors as responders were added. Six-day MLR were performed and cultures were pulsed with [3H]-methylthymidine (PerkinElmer, Waltham, Mass., USA) for the last 18 h. Cells were harvested, and radionuclide uptake was measured by scintillation counting. Experiments were repeated with six unrelated PBMC donors.

AHR [2] = target: T2, AHR (Mus musculus, UniProt P30561); test: AHR nuclear translocation (GFP-tagged AHR, mouse hepatoma cells); format: cell-based; conditions: after 1 h; 50 μM Kyn
T2 construct: expressed in transfected cells; host or cells: Tao BpRc1c mouse hepatoma cells
T2 sequence (P30561 10-848): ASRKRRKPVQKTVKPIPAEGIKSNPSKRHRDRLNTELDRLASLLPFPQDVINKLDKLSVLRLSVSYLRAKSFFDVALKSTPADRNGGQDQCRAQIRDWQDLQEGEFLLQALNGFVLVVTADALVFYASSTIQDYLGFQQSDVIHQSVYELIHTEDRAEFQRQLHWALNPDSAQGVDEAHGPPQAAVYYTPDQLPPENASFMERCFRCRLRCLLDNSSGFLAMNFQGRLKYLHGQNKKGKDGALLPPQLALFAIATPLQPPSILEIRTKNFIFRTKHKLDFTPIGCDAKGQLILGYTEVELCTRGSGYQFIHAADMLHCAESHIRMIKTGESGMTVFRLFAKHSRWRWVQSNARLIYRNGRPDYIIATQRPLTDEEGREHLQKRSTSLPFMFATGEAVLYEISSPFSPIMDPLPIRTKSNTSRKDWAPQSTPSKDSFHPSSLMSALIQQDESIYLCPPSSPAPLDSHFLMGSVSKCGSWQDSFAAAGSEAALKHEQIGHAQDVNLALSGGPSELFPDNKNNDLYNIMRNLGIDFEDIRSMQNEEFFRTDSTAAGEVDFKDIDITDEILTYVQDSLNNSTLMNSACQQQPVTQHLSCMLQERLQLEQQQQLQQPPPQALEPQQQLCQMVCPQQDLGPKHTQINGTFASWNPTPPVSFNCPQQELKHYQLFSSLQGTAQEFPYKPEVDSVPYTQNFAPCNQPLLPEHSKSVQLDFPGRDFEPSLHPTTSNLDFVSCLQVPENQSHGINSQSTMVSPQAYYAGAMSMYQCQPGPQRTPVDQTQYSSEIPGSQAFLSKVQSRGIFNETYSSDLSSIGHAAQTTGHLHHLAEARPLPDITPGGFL
Description: For detection of AHR translocation 7000 Tao BpRc1c cells with a GFP-tagged AHR per well were exposed to 50 μM Kyn or 50 μM Trp, fixed in 3.7% formaldehyde in PBS, permeabilised in 0.1% Triton X100, incubated with 1 μg/ml Hoechst 33342 (Invitrogen) and imaged on a BD Pathway™ Imager 855 in a non-confocal mode using a 20× U-Apo 340 objective (Olympus, NA 0.75). Further analysis of fluorescence intensity was performed using the Attovision software (BD Biosciences). In addition, the AHR protein content in the nuclear and the cytoplasmic fractions of LN-229 glioma cells was compared by immunoblotting.

AHR [3] = target: T3, AHR (Mus musculus, UniProt P30561)
T3 sequence (P30561 1-848): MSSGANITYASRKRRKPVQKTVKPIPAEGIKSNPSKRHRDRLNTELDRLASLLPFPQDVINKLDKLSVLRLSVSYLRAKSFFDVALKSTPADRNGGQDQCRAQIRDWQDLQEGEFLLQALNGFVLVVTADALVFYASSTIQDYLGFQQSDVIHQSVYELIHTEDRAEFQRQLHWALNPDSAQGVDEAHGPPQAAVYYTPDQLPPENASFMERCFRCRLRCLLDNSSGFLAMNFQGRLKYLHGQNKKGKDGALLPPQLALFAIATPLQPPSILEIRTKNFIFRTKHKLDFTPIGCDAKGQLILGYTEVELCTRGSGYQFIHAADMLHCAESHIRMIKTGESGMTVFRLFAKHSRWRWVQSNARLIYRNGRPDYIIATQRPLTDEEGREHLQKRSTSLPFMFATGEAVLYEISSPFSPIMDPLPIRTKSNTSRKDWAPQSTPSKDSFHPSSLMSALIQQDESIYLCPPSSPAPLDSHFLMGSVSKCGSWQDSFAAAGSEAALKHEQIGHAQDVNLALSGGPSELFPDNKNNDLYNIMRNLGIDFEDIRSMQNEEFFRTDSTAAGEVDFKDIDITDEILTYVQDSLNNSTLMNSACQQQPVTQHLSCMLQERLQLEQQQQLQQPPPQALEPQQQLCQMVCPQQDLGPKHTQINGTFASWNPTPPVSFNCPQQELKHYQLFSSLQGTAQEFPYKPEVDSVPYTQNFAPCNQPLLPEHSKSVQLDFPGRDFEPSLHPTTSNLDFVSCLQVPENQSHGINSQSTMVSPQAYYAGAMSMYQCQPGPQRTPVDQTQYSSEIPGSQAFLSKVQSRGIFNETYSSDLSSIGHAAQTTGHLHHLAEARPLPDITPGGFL
Description: The data distribution is represented by box plots, showing the 25th and 75th percentile together with the median, whiskers represent the 10th and 90th percentile, respectively (P<0.001, one way ANOVA on ranks, followed by Dunns' method). d, AHR Western blots of two different nuclear and cytoplasmic fractions each of control (1,2), Kyn-treated (3,4) and TCDD-treated (5,6) human LN-229 glioma cells. e, Dioxinresponsive element (DRE) chemical activated luciferase gene expression in U87 glioma cells treated with indicated Kyn concentrations (n=2). f, Radioligand binding assay with indicated concentrations of L-3H-Kyn using mouse liver cytosol from Ahr-proficient and Ahr-deficient mice.
L-3H-Kyn with a specific activity of 11 Ci/mmol was obtained from Quotient Bioresearch (Radiochemicals) Ltd. (Cardiff, UK). The binding assays with L-3H-Kyn using mouse liver cytosol from Ahr-proficient and Ahr-deficient mice were performed. Specific binding was defined as the difference of radioactivity between Ahr-proficient and Ahr-deficient cytosol.

AHR [4] = target: T1, AHR
Description: Dual luciferase/renilla assays were performed as detailed in the Supplementary Methods. For analysis of DRE-driven reporter gene activity in response to various Trp metabolites, the pGL3-promotor expression plasmid and the control plasmid pRL-SV40, expressing renilla luciferase were used (Promega, Heidelberg, Germany).

AHR [5] = target: T1, AHR; test: ethoxyresorufin-O-deethylase (EROD) assay, induction of AHR target gene CYP1A1; format: cell-based
Description: Such an inhibition may occur if the compound binds to an interaction domain of the AHR or its ligand binding domain and thereby inhibits the biological function of the AHR as specified elsewhere herein. Preferably, the inhibitor blocks the ligand binding domain for kynurenin, i.e. interacts with the ligand binding domain of the PAS-B domain or the ligand binding domain formed by Tyr310, Phe324, His326 and Arg352 (amino acid positions corresponding to human AHR). Alternatively, the compound may elicit an allosteric effect on the AHR polypeptide resulting in an inhibition of the biological function as well. An indirect inhibition can be elicited by a compound which reduces or prevents the transcription and/or translation of AHR polypetides and, thus, the amount of available AHR polypeptides in a cell. The AHR inhibitor shall at least reduce the AHR activity to a statistically significant extent. Of course, preferably, the inhibitor will reduce the AHR activity below the detectable limits. […] The activity of AHR can be detected by determining induction of the gene expression of its endogenous target gene CYP1A1 by an ethoxyresorufin-O-deethylase (EROD) assay.

glioma cells = test: Motility, clonogenic survival and sphere formation of glioma cells; format: cell-based, human
Description: Tumor weight was calculated using the equation: tumor weight (g)=(length (cm)×width (cm)2)×0.5. e, IFN-γ-release of T cells of mice bearing subcutaneous Tdo-expressing tumors (black bar) in comparison to T cells of mice bearing Tdo-deficient tumors (white bar) after restimulation with glioma lysates measured by ELISpot (n=3). f, Lysis of GL261 murine glioma cells by spleen cells of mice with Tdo-expressing GL261 tumors in comparison to those with a subcutaneous Tdo-deficient GL261 tumors measured by chromium release (n=4). g, Quantification of the migrated distances of sh-c (open squares) and sh-TDO (solid circles) cells into a collagen matrix (n=3, P=0.004, 0.0005 and 0.01 for 24, 48 and 72 h, respectively). h, Clonogenic survival of sh-c (white bar) and sh-TDO (black bar) U87 cells (n=3). i, Matrigel boyden chamber assay of U87 glioma cells in the absence or presence of 70 μM Trp without or with 30 μM or 60 μM Kyn (n=3). j, Clonogenic survival of LN-18 glioma cells in the absence or presence of 70 μM Trp without or with 30 μM or 60 μM Kyn (n=3). k, Representative cranial MRIs, H&E and nestin stainings of CD1 nu/nu mice implanted with sh-c (upper panel) or sh-TDO (lower panel) U87 glioma cells. […]

AHR response genes = test: Microarray analysis of Kyn-treated U87 glioma cells; format: cell-based, human; conditions: U87, 100 μM Kyn, 8 h and 24 h
Description: U87 glioma cells were treated with 100 μM Kyn for 8 h or 24 h, after which the cells were harvested and RNA isolated using the RNAeasy-Kit (Qiagen). The RNA was subjected to microarray analyses as detailed in the Supplementary Methods. For each of the four treatments (8 h, 24 h, Kyn-treated, untreated) two arrays were hybridised and the mean log 2 ratios of gene expression in Kyn-treated vs. untreated samples were calculated. Further analyses of the data are detailed in the Supplementary Methods. For clinical samples microarray and clinical data were acquired from the REpository for Molecular BRAin Neoplasia DaTa (REMBRANDT) (Supplementary Methods). Survival analysis within the data set of untreated primary glioblastoma (n=362) of The Cancer Genome Atlas (TCGA) network was performed using the Kaplan-Meier-analysis module of the R2 microarray analysis and visualisation platform (http://r2.amc.nl).

Compound	Activation of the AHR and upregulation of AHR-regulated gene expression in response to Kyn (AHR [1]; agonist Kyn)	Activation of the AHR by Kyn, TCDD and 3-MC (AHR [1]; three ligands: Kyn, TCDD, 3-methylcholanthrene)	Proliferation of T cell receptor-stimulated CD4+ and CD8+ T cells (T cells)	Allogeneic T cell proliferation with TDO knockdown glioma cells (T cells; 100 μM Kyn added to sh-TDO U87 cells (FIG. 2b))	Translocation of the AHR into the nucleus (AHR [2])	Kd (AHR [3]) [µM]	EC50 (AHR [4]) [µM]	EC50 (AHR [5]) [µM]	Motility and clonogenic survival of glioma cells (glioma cells; absence of Trp, 30 or 60 μM Kyn (FIG. 2i,j))	Sphere formation of GIC (glioma cells; glioma-initiating cells)	Induction of AHR response genes (AHR response genes)
COc1ccc(-c2cc(=O)c3ccccc3o2)cc1OC [3,4-DMF, 3,4-dimethoxylflavone]	inhibited	inhibited the activation of the AHR by all three ligands									
Kynurenin			concentration-dependently inhibited	prevented the restoration of T cell proliferation	led to translocation of the AHR into the nucleus	~4	36.6	12.3	restored motility and clonogenic survival	enhanced	broad induction of AHR response genes
